Assay results reported in patent US8318781B2, “G-protein-conjugated receptor agonist” (Japan Science and Technology Agency, priority 2007, dated 2012).
“Also recorded” adds a separate entry of the source.

Legend:
Type in all cases: cell-based
[1] = target: T1, human GPR120 (hGPR120) (Homo sapiens, UniProt Q5NUL3); assay: ERK assay, screening for GPR120 ligands in cell line TXGPR120; conditions: TXGPR120 cells;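 on ERK/GPR120 10 μM: signals normalized between DMSO and PMA controls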
T1 construct: expressed in transfected cells; doxycycline-inducible expression vector
T1 sequence (Q5NUL3 1-361): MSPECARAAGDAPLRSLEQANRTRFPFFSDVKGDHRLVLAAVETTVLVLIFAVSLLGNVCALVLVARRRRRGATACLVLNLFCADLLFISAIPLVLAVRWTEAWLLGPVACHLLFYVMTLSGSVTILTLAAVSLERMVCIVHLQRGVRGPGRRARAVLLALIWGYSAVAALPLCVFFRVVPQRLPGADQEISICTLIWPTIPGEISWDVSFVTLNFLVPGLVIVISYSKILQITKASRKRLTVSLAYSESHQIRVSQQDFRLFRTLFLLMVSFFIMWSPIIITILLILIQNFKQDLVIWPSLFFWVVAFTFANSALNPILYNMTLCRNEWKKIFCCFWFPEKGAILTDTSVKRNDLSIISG
Experimental: (§1) This Test 1 was carried out by using the following materials and methods.
(§2) (1) In this test, the cell lines TXGPR40 and TXGPR120 were plated in 35-mm dishes in 5×10^5 cells/per dish.
(§3) Each ligand was dissolved in DMSO, diluted tenfold with the medium to make the total amount of 100 μl. DMSO was used as the negative control, and PMA (phorbol-12-myristate-13-acetate) was used as the positive control.
(§4) (3) The medium was removed from the dish of the cell to reduce the total amount of liquid to 0.9 ml.
(§5) (4) The ligand solution was added dropwise to the cell solution, and dispersed by gently shaking the dish, and allowed to react at room temperature.
(§6) (5) After 5 minutes of reaction, the medium was discarded, and the remaining medium on the dish was removed on ice using an aspirator.
(§7) (6) 150 μl of Lysis buffer (50 mM HEPES (pH 7.0), 150 mM NaCl, 10% glycerol, 1% NonidetP-40, 2 mM MgCl2, 1 mM EDTA, 100 mM NaF, 10 mM sodium phosphate, 1 mM Na3VO4, 20 mM β-glycerophosphate, and Proteinase inhibitor) were added, then the cells were collected using a cell scraper.
(§8) (1) The crude enzyme solution mixed with SDS Sample Buffer was subjected to ultrasonication with a sonifier, then incubated at 90° C. for five minutes.
(§9) (2) The mixture was vortexed and centrifuged at 15,000 rpm for five minutes at 4° C.
(§10) (3) The supernatant of the centrifuged sample was applied to two 7.5% acrylamide gel slabs placed in an electrophoresis tank filled with 1×SDS-PAGE Running Buffer (25 mM Tris, 0.2 M Glycin, and 1% SDS). Electrophoresis was carried out under a constant current of 40 mA for about 80 to 90 minutes.
(§11) (1) A PVDF membrane cut in the same size as the gel slab was immersed in methanol for about 15 seconds and then shaken in Transfer Buffer C solution (25 mM Tris, 0.02% SDS, 2% methanol and 40 mM 6-aminohexanoic acid) at room temperature to swell for 15 minutes. Filter paper for blotting was cut into a 10-cm square.
(§12) (2) On the blotting apparatus were placed sequentially two pieces of filter paper immersed in A solution (0.3 M Tris, 0.02% SDS and 2% methanol), two pieces of filter paper immersed in B solution (25 mM Tris, 0.02% SDS and 2% methanol), and the membrane thereon. The gel slab after electrophoresis, and finally two pieces of filter paper immersed in C solution was placed thereon, and the apparatus was closed.
(§13) (3) The protein was transferred to the membrane at 15 V for 30 minutes.
(§14) (1) The following procedure was all carried out at room temperature. After the protein transfer, the membrane was placed into a vial containing 1×TTBS (0.2 M Tris, 1.5 M NaCl, 0.2% Tween 20) and washed for 15 minutes.
(§15) (2) TTBS was discarded, and about 10 ml of Block Ace was added and blocked on a shaker for one hour.
(§16) (1) The primary antibodies (p44/42 MAP Kinase Antibody and Phospho-p44/42 MAP Kinase Antibody) were each diluted 1000-fold with TTBS.
(§17) (2) After blocking, the Block Ace solution was removed, the solution of the primary antibody was added and allowed to react on the shaker for two hours.
(§18) (1) The secondary antibody (Anti-rabbit Ig, Horseradish Peroxidase linked F(ab′)2 fragments) was diluted 5000-fold with TTBS.
(§19) (2) The primary antibody solution was removed and the membrane was washed three times on the shaker in TTBS for five to ten minutes each.
(§20) (3) TTBS was removed and the solution of secondary antibody was added and left for 1 hour on the shaker.
(§21) (1) 2 ml each of Detection Reagent 1 and Detection Reagent 2 from ECL kit were mixed together on ice.
(§22) (2) The solution of secondary antibody was removed from the membrane reacted with the secondary antibody and then washed three times on the shaker in TTBS for five minutes each.
(§23) (3) The liquid was thoroughly removed from the membrane, which was then placed in a plastic bag, and 2 ml of the Detection Reagent mixture was added per each membrane.
(§24) (4) The membrane was kept in contact with a film in the cassette for one to five minutes, and the film was developed using an automatic developing machine.

[2] = target: T2, human GPR40 (hGPR40) (Homo sapiens, UniProt O14842); assay: Determination of intracellular Ca2+ concentration (FLIPR), cell line TXGPR40; conditions: for EC50 / [Ca^2+]/GPR40 10 μM (ratio vs. LA): TXGPR40 cells; for EC50: maximum fluorescence intensity vs ligand concentration, read-out: [Ca^2+]/GPR40 pEC50 (converted); for agonistic activity for GPR40 (in words): cells in which GPR40 has been transgenically expressed; for [Ca^2+]/GPR40 10 μM (ratio vs. LA): relative fluorescence intensity vs LA at 10 μM
T2 construct: expressed in transfected cells; doxycycline-inducible expression vector
T2 sequence (O14842 whole entry): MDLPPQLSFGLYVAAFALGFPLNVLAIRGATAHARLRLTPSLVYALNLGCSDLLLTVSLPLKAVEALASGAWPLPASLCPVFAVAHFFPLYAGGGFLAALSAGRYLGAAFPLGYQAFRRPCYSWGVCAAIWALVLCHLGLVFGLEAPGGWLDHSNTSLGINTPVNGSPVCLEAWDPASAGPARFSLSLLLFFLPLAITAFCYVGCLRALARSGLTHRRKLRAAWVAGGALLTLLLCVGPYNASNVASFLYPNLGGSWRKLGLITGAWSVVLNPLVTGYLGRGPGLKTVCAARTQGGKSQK
Experimental: (§25) (1) In this test, The cell lines TXGPR40, TXGPR120 and GPR120/Flp-in were plated onto a collagen-coated black 96-well plate in 2×10^5 cells/well. The 96-well plates containing the cells were centrifuged and treated with Doxycycline (final concentration 10 μg/mL), incubated in a CO2 incubator for 21 hours, then used for assay.
(§26) (2) The ligand used in this test includes NCP04, NCP14, NCG20, NCG21, NCG22, NCG23, NCP02, NCP03, NCP05, NCP06, NCG14, NCG17, NCG19, NCG28, NCG29, NCG30, NCG31, NCG34, NCG35, NCG37, NCG38, NCG44, NCG45, NCG46, and NCG54. Each ligand was dissolved in DMSO and adjusted to the concentration of 10 mM, then diluted with Hanks' Balanced Salt Solution (pH 7.4) containing 20 mM HEPES (referred to as FLIPR buffer hereinafter) to the final concentration of 1 to 100 μM. 1% DMSO was used as the negative control, and LA was used as the positive control.
(§27) The ligands and controls were placed in different 96-well plates from the plates for the cells.
(§28) (3) The 96-well plate containing the cells was removed from the CO2 incubator. A fluorescent dye prepared in a twofold higher concentration (Ca Assay Kit Component A diluted with FLIPR Buffer) was added in 50 μL/well, then allowed to stand in the dark at room temperature for one hour.
(§29) (4) After one hour, the 96-well plate containing the cells and the 96-well plate in which ligands and controls were prepared were set on FLIPR (Fluorometric Imaging Plate Reader) for determination.
(§30) (5) Fluorometry using FLIPR was carried out at a laser output of 1.0 W for five minutes. […] after the start of the determination, the ligand (25 μL) was added dropwise to the cell plate at a rate of 50 μL/sec. The intensity of fluorescence was automatically digitized by the application program installed in the FLIPR from the image taken by the CCD camera (with exposure time of 0.40 sec). The interval of data sampling was one second for the initial one minute after the start of operation, and six seconds for the subsequent four minutes.
(§31) (6) The maximum fluorescence intensity was obtained from the data showing the change in the fluorescence intensity over time observed in each well. The maximum fluorescence intensity was plotted against ligand concentration, and pEC50 was calculated. The ratio of the fluorescence intensity for each ligand to LA at 10 μM was calculated as the relative intensity of each ligand.

[3] = target: T1, human GPR120 (hGPR120); assay: Determination of intracellular Ca2+ concentration (FLIPR), cell line GPR120/Flp-in; conditions: GPR120/Flp-in cells; for EC50: maximum fluorescence intensity vs ligand concentration, read-out: [Ca^2+]/GPR120/Flp-In pEC50 (converted); for [Ca^2+]/GPR120/Flp-In 10 μM (ratio vs. LA): relative fluorescence intensity vs LA at 10 μM
Experimental: as §25, §26, §27, §28, §29, §30, §31

[4] = target: T1, human GPR120 (hGPR120); assay: Determination of intracellular Ca2+ concentration (FLIPR), cell line TXGPR120; conditions: for agonistic activity for hGPR120 (in words): cells in which GPR120 has been transgenically expressed; for [Ca^2+]/GPR120 10 μM (ratio vs. LA): relative fluorescence intensity vs LA at 10 μM, TXGPR120 cells; for selectivity between GPR40 and GPR120 (in words), from Tables 3 and 4: GPR40 versus GPR120, Ca2+ and ERK results
Experimental: as §25, §26, §27, §28, §29, §30, §31

[5] = target: T2, human GPR40 (hGPR40); assay: ERK assay, screening for GPR40 ligands in cell line TXGPR40; conditions: TXGPR40 cells; for ERK/GPR40 10 μM: ligand 10 μM
Experimental: as §1, §2, §3, §4, §5, §6, §7, §8, §9, §10, §11, §12, §13, §14, §15, §16, §17, §18, §19, §20, §21, §22, §23, §24

[6] = ligand 100 μM, class relative to LA

SMILES | ERK activation for GPR120 (in words) ([1]; FIGS. 5-8) | ERK/GPR120 10 μM ([1]; ligand 10 μM, class relative to LA) | ERK/GPR120 100 μM [1, 6] | EC50 [2] [µM] | agonistic activity for GPR40 (in words) [2] | [Ca^2+]/GPR40 10 μM (ratio vs. LA) [2] | EC50 [3] [µM] | [Ca^2+]/GPR120/Flp-In 10 μM (ratio vs. LA) [3] | agonistic activity for hGPR120 (in words) [4] | [Ca^2+]/GPR120 10 μM (ratio vs. LA) [4] | ERK activation for GPR40 (in words) ([5]; FIGS. 1-4) | ERK/GPR40 10 μM ([5]; class relative to LA) | ERK/GPR40 100 μM [5, 6] | selectivity between GPR40 and GPR120 (in words), from Tables 3 and 4 [4]
O=C(O)CCc1ccc(OCCCN(c2ccccc2)c2ccccn2)cc1 [NCG28] | activates ERK | ++ (++ denotes 50 to 100% of LA) | +++ (+++ denotes a higher value than LA) | 1.12 | showed a specific reactivity | 1.37 | 6.76 | 0.54 | exhibit a similar effect | 0.02 | activates ERK at lower concentrations; also recorded: strongly activated ERK | +++ (+++ denotes a higher value than LA) | +++ (+++ denotes a higher value than LA) | 
CCCCN(CCOc1ccc(CCCCC(=O)O)cc1)c1ccccn1 [NCG22, 5-{4-[2-(2-butylpyridinylamino)ethoxy]phenyl}pentanoic acid] |  |  |  | 20.4 |  |  | 19.1 |  |  |  |  |  |  | 
c1ccc(Oc2cccc(CNc3ccc(CCc4nnn[nH]4)cc3)c2)cc1 [NCG17] |  |  |  | 3.39 | showed a specific reactivity | 1.34 | 5.89 | 0.59 | exhibit a similar effect | 0.00 |  | ++ (++ denotes 50 to 100% of LA) |  | selective agonists for GPR40
CS(=O)(=O)NC(=O)CCc1ccc(NCc2cccc(Oc3ccccc3)c2)cc1 [NCG19] |  |  |  | 2.88 | showed a specific reactivity | 1.29 | 17 | 0.33 | exhibit a similar effect | 0.04 |  | ++ (++ denotes 50 to 100% of LA) |  | selective agonists for GPR40
